Reference: PMC7526454 (JCI Insight, 2020)
Where two headings read alike, the source gives them in different places.

Tests used:
human serum albumin = target: T1, human serum albumin (Homo sapiens, UniProt P02768); assay: Ligand affinity for albumin by albumin-shift cAMP assays (Schild regression); assay type: in vitro ADME; conditions: at 640 μM albumin, calculated from KA
T1 construct: For assays containing albumin from human serum; purchased MilliporeSigma A3782; host or cells: human serum
Method: Clonal HEK293 cells stably expressing either untagged human GIPR or human GLP-1R at various levels of receptor density were used for measurement of cAMP accumulation using the Gs Dynamic Assay and homogenous time-resolved fluorescence (62AM4PEJ, PerkinElmer). Corning 3570 white microtiter plates were used to collect 10 μL assay medium (DMEM, 31053, [Thermo Fisher Scientific], 2 mM Glutamax [35050, Thermo Fisher Scientific], 20 mM HEPES, 0.1% w/v bovine casein [4765, MilliporeSigma], and 250 μM isobutylmethylxanthine [IBMX] phosphodiesterase inhibitor) from a Multidrop Combi dispenser (Thermo Fisher Scientific). […] Vials of assay-ready cells were rapidly thawed from cryopreservation on the day of the assay. […] Time-resolved fluorescence was quantitated with a Pherastar FSX multilabel reader (BMG Labtech). Fluorescence data were analyzed by the ratio method, calibrated to external standards in a parallel processed plate, and reported as percent activation compared with vehicle minimum and native peptide maximum control wells. […]
Methods to quantify and predict the effect of albumin binding on biological activity in enzyme assays, receptor binding assays, and cell-based assays exist, but they are not currently widely employed ([57]–[59]). The general approach involves performing a bioassay in an albumin-free system and quantifying the effect of systematic titrations of albumin into the system. […]

[1] = steady state plasma total concentration, cited from earlier work

T1 sequence (P02768 25-609): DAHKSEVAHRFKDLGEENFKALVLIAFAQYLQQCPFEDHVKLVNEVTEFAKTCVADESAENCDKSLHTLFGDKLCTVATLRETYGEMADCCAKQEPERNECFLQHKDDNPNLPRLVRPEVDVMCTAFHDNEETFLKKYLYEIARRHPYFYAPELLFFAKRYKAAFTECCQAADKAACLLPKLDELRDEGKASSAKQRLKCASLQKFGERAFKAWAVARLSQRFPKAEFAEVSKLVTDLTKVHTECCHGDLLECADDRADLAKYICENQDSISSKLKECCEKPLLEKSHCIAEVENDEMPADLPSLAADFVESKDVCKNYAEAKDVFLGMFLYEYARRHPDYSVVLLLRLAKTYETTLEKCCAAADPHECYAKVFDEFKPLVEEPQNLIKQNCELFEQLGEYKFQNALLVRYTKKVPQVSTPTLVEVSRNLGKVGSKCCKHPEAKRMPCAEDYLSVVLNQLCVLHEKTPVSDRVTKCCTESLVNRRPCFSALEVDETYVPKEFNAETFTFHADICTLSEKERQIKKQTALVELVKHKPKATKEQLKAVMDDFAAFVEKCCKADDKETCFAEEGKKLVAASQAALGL

In the case of CC[C@H](C)[C@H](NC(=O)[C@H](Cc1ccccc1)NC(=O)[C@H](CCC(=O)O)NC(=O)[C@H](CCCCNC(=O)COCCOCCNC(=O)COCCOCCNC(=O)CC[C@H](NC(=O)CCCCCCCCCCCCCCCCC(=O)O)C(=O)O)NC(=O)[C@H](C)NC(=O)[C@H](C)NC(=O)[C@H](CCC(N)=O)NC(=O)CNC(=O)[C@H](CCC(=O)O)NC(=O)[C@H](CC(C)C)NC(=O)[C@H](Cc1ccc(O)cc1)NC(=O)[C@H](CO)NC(=O)[C@H](CO)NC(=O)[C@@H](NC(=O)[C@H](CC(=O)O)NC(=O)[C@H](CO)NC(=O)[C@@H](NC(=O)[C@H](Cc1ccccc1)NC(=O)[C@@H](NC(=O)CNC(=O)[C@H](CCC(=O)O)NC(=O)C(C)(C)NC(=O)[C@@H](N)Cc1cnc[nH]1)[C@@H](C)O)[C@@H](C)O)C(C)C)C(=O)N[C@@H](C)C(=O)N[C@@H](Cc1c[nH]c2ccccc12)C(=O)N[C@@H](CC(C)C)C(=O)N[C@H](C(=O)N[C@@H](CCCNC(=N)N)C(=O)NCC(=O)N[C@@H](CCCNC(=N)N)C(=O)NCC(=O)O)C(C)C [Semaglutide, semaglutide], the predicted unbound fraction (human serum albumin) is given as 0.00072, the “Css (total)” value ([1]; semaglutide 0.5 mg clinical dose) is given as 15 nM and the “Css (total)” value ([1]; semaglutide 1 mg clinical dose) is given as 30 nM.
